Laboratory results taken from ChEMBL document CHEMBL1135216, “New 2-(1-adamantylcarbonyl)pyridine and 1-acetyladamantane thiosemicarbazones-thiocarbonohydrazones: cell growth inhibitory, antiviral and antimicrobial activity evaluation” (Bioorg Med Chem Lett, 2002).
pEC50: −log10 of the molar value. In brackets after ≈: the same amount, converted by molar mass.

Tests used:
Escherichia coli = experiment: Tested for the antimicrobial activity against Escherichia coli ATCC 25922; format: functional
E6SM [1] = experiment: (§1) Tested for antiviral activity against thymidine kinase wild type Varicella zoster virus in human embryonic lung fibroblast; format: functional
MT4 [2] = experiment: Tested for cytotoxic concentration required to reduce the viability of MT-4 cells by 50%; format: functional; conditions: Homo sapiens
Klebsiella pneumoniae = experiment: Tested for the antimicrobial activity against Klebsiella pneumoniae ATCC 13883; format: functional
Vero [3] = experiment: Tested for antiviral activity against Reo-1 virus in African green monkey kidney cell (Vero); format: functional; conditions: Chlorocebus sabaeus
HuT78 [4] = experiment: Tested for the inhibitory concentration against cell growth of human leukemic cell line HuT78; format: functional
RPMI-8226 [5] = experiment: Tested for the inhibitory concentration against cell growth of […] multiple myeloma using MTT assay; format: functional; conditions: Homo sapiens
[6] = system: Staphylococcus epidermidis; experiment: Tested for the antimicrobial activity against Staphylococcus epidermidis ATCC 12228; format: functional
Vero [7] = experiment: Tested for antiviral activity against coxsackie B-4 virus in African green monkey kidney cell (Vero); format: functional; conditions: Chlorocebus sabaeus
E6SM [8] = experiment: Tested for antiviral activity against vaccinia virus in human embryonic skin muscle fibroblast; format: functional; conditions: Muscle tissue
HEL [9] = experiment: Tested for cytotoxic activity in human embryonic lung fibroblast (HEL); format: functional
Staphylococcus hominis = experiment: (§2) Tested for the antimicrobial activity against Staphylococcus hominis ATCC 27844; format: functional
E6SM [10] = experiment: Tested for antiviral activity against VSV-virus in human embryonic skin muscle fibroblasts; format: functional; conditions: Muscle tissue
Vero [11] = experiment: Tested for antiviral activity against Sindbis virus in African green monkey kidney cell (Vero); format: functional; conditions: Chlorocebus sabaeus
HL-60 [12] = experiment: Tested for the concentration required to reduce the viability of leukemia cells by 50% against cell growth of HL60 acute myeloid leukemia using MTT assay; format: functional; conditions: Homo sapiens, read-out: LC50 (the source's name)
K562 [13] = experiment: Tested for the concentration required to reduce the viability of leukemia cells by 50% against cell growth of K562 chronic myeloid leukemia using MTT assay; format: functional; conditions: Homo sapiens, read-out: LC50 (the source's name)
E6SM [14] = experiment: Tested for antiviral activity against herpes simplex virus type 1(KOS) in E6SM cell line(human embryonic skin-muscle fibroblasts); format: functional
CCRF-CEM [15] = experiment: Tested for the concentration required to reduce the viability of leukemia cells by 50% against cell growth of T cell leukemia cell line CCRF-CEM using MTT assay; format: functional; conditions: Homo sapiens, read-out: LC50 (the source's name)
Vero [16] = experiment: Tested for antiviral activity against Punta toro virus in African green monkey kidney cell (Vero); format: functional; conditions: Chlorocebus sabaeus
HL-60 [17] = experiment: Tested for the inhibitory concentration against cell growth of HL60 acute myeloid leukemia using MTT assay; format: functional; conditions: Homo sapiens
Vero [18] = experiment: Tested for cytotoxic activity in African green monkey kidney cells (Vero); format: functional; conditions: Chlorocebus sabaeus
HeLa [19] = experiment: Tested for cytotoxic activity in human epithelial cell line (HeLa); format: functional
E6SM [20] = experiment: Tested for antiviral activity against thymidine kinase-deficient (TK-HSV-2G) virus in E6SM cell line(human embryonic skin-muscle fibroblasts); format: functional
HuT78 [21] = experiment: Tested for the concentration required to reduce the viability of leukemia cells by 50% against cell growth of HuT78 T lymphoma using MTT assay; format: functional; conditions: Homo sapiens, read-out: LC50 (the source's name)
MOLT-4 [22] = experiment: Tested for the concentration required to reduce the viability of leukemia cells by 50% against cell growth of T cell leukemia cell line MOLT-4 using MTT assay; format: functional; conditions: Homo sapiens, read-out: LC50 (the source's name)
E6SM [23] = experiment: Tested for cytotoxic activity in human embryonic skin muscle fibroblast (E6SM); format: functional; conditions: Muscle tissue
E6SM [24] = experiment: The compound was tested for antiviral activity against thymidine kinase-deficient (TK-HSV-1)virus in E6SM cell line(human embryonic skin-muscle fibroblasts); format: functional
MT4 [25] = experiment: (§3) Tested for effective concentration required to protect MT-4 cells against the cytopathicity of HIV-1(IIIB); format: functional, cell-based; conditions: Homo sapiens
HEL [26] = experiment: Tested for antiviral activity against thymidine kinase deficient Varicella zoster virus in human embryonic lung fibroblasts; format: functional
HEL [27] = experiment: Tested for antiviral activity against human cytomegalovirus (AD-169) in human embryonic lung fibroblasts; format: functional
MOLT-4 [28] = experiment: Tested for the inhibitory concentration against cell growth of human leukemic cell line MOLT-4; format: functional
HeLa [29] = experiment: Tested for antiviral activity against coxsackie-B4 virus in human epithelial cell line; format: functional
CCRF-CEM [30] = experiment: Tested for the inhibitory concentration against cell growth of human leukemic cell line CCRF-CEM; format: functional
HeLa [31] = experiment: The compound was tested for antiviral activity against VSV-virus in human epithelial cells; format: functional
RPMI-8226 [32] = experiment: Tested for the concentration required to reduce the viability of leukemia cells by 50% against cell growth of RPMI8226 multiple myeloma using MTT assay; format: functional; conditions: Homo sapiens
HL-60 [33] = experiment: Tested for the inhibitory concentration against cell growth of human leukemic cell line HL60; format: functional
Vero [34] = experiment: Tested for antiviral activity against parainfluenza virus in african green monkey kidney cell (Vero); format: functional; conditions: Chlorocebus sabaeus
Staphylococcus aureus = experiment: Tested for the antimicrobial activity against Staphylococcus aureus ATCC 6538; format: functional
RPMI-8226 [35] = experiment: Tested for the inhibitory concentration against cell growth of human leukemic cell line RPMI8226; format: functional
HEL [36] = experiment: as §1; format: functional
E6SM [37] = experiment: Antiviral activity against thymidine kinase-deficient (TK-HSV-2G) virus in E6SM cell line(human embryonic skin-muscle fibroblasts); format: functional
MT4 [38] = experiment: Tested for effective concentration required to protect MT-4 cells against the cytopathicity of HIV-2(ROD); format: functional, cell-based; conditions: Homo sapiens
K562 [39] = experiment: Tested for the inhibitory concentration against cell growth of human leukemic cell line K562; format: functional
MOLT-4 [40] = experiment: Tested for the inhibitory concentration against cell growth of Tcell leukemic cell line MOLT-4 using MTT assay; format: functional; conditions: Homo sapiens
CCRF-CEM [41] = experiment: Tested for the inhibitory concentration against cell growth of Tcell leukemic cell line CCRF-CEM using MTT assay; format: functional; conditions: Homo sapiens
K562 [42] = experiment: Tested for the inhibitory concentration against cell growth of K562 chronic myeloid leukemia using MTT assay; format: functional; conditions: Homo sapiens
[43] = as §2; format: functional
E6SM [44] = experiment: Antiviral activity against thymidine kinase-deficient (TK-HSV-1)virus in E6SM cell line(human embryonic skin-muscle fibroblasts); format: functional
MT4 [45] = experiment: as §3; format: functional; conditions: Homo sapiens, read-out: LC50 (the source's name)
HuT78 [46] = experiment: Tested for the inhibitory concentration against cell growth of HuT78 T lymphoma using MTT assay; format: functional; conditions: Homo sapiens
[47] = read-out: LC50 (the source's name)

SMILES: N/C(S)=N\N=C(\c1ccccn1)C12CC3CC(CC(C3)C1)C2
- MIC (Escherichia coli): > 3180 µg/mL
- MIC (E6SM [1]): > 20 µg/mL
- CC50 (MT4 [2]; [47]): > 400 µM
- MIC (Klebsiella pneumoniae): > 3180 µg/mL
- MIC (Vero [3]): > 3.2 µg/mL
- GI50 (HuT78 [4]): 2.4 µM
- TGI (RPMI-8226 [5]): 100 µM
- MIC [6]: > 3180 µg/mL
- MIC (Vero [7]): > 3.2 µg/mL
- MIC (E6SM [8]): > 400 µg/mL
- MCC (HEL [9]): > 20 µg/mL
- MIC (Staphylococcus hominis): > 3180 µg/mL
- MIC (E6SM [10]): > 400 µg/mL
- MIC (Vero [11]): > 3.2 µg/mL
- CC50 (HL-60 [12]): 100 µM
- CC50 (K562 [13]): 100 µM
- CC50 (E6SM [14]): > 400 µg/mL
- CC50 (CCRF-CEM [15]): 100 µM
- MIC (Vero [16]): > 3.2 µg/mL
- TGI (HL-60 [17]): 100 µM
- MCC (Vero [18]): 16 µg/mL
- MCC (HeLa [19]): > 400 µg/mL
- MIC (E6SM [20]): > 400 µg/mL
- CC50 (HuT78 [21]): 100 µM
- CC50 (MOLT-4 [22]): 100 µM
- MCC (E6SM [23]): > 400 µg/mL
- CC50 (E6SM [24]): > 400 µg/mL
- pEC50 (MT4 [25]): < 3.40
- MIC (HEL [26]): > 20 µg/mL
- MIC (HEL [27]): > 5 µg/mL
- GI50 (MOLT-4 [28]): 6.4 µM
- MIC (HeLa [29]): 240 µg/mL (≈ 763 µM)
- GI50 (CCRF-CEM [30]): 100 µM
- MIC (HeLa [31]): > 400 µg/mL
- CC50 (RPMI-8226 [32]): 100 µM
- GI50 (HL-60 [33]): 51.1 µM
- MIC (Vero [34]): > 3.2 µg/mL
- MIC (Staphylococcus aureus): > 3180 µg/mL
- GI50 (RPMI-8226 [35]): 97.9 µM

SMILES: S=C(N/N=C(/c1ccccn1)C12CC3CC(CC(C3)C1)C2)NNC(=S)c1ccc(Cl)cc1
- MIC (Escherichia coli): > 2000 µg/mL
- MIC (HEL [36]): > 2 µg/mL
- MIC (E6SM [37]): > 16 µg/mL
- pEC50 (MT4 [38]): < 5.52
- GI50 (K562 [39]): 100 µM
- TGI (MOLT-4 [40]): 100 µM
- CC50 (MT4 [2]): 2.8 µM
- TGI (CCRF-CEM [41]): 100 µM
- MIC (Klebsiella pneumoniae): > 2000 µg/mL
- MIC (Vero [3]): > 16 µg/mL
- GI50 (HuT78 [4]): 8 µM
- TGI (RPMI-8226 [5]): 68.3 µM
- MIC [6]: 1000 µg/mL (≈ 2070 µM)
- MIC (Vero [7]): 9.6 µg/mL (≈ 19.8 µM)
- MIC (E6SM [8]): > 16 µg/mL
- TGI (K562 [42]): 100 µM
- MCC (HEL [9]): 5 µg/mL
- MIC [43]: 1000 µg/mL (≈ 2070 µM)
- MIC (E6SM [10]): > 16 µg/mL
- MIC (Vero [11]): > 16 µg/mL
- MIC (E6SM [44]): > 16 µg/mL
- CC50 (HL-60 [12]): 85.5 µM
- CC50 (K562 [13]): 100 µM
- MIC (E6SM [14]): > 16 µg/mL
- CC50 (CCRF-CEM [15]): 100 µM
- MIC (Vero [16]): > 16 µg/mL
- TGI (HL-60 [17]): 9.5 µM
- MCC (Vero [18]): 80 µg/mL
- MCC (HeLa [19]): > 16 µg/mL
- CC50 (HuT78 [21]): 100 µM
- CC50 (MOLT-4 [22]): 100 µM
- MCC (E6SM [23]): 80 µg/mL
- MIC (HEL [26]): > 2 µg/mL
- MIC (HEL [27]): > 5 µg/mL
- GI50 (MOLT-4 [28]): 100 µM
- MIC (HeLa [29]): > 3.2 µg/mL
- pEC50 (MT4 [45]): < 5.52
- GI50 (CCRF-CEM [30]): 76 µM
- MIC (HeLa [31]): > 3.2 µg/mL
- CC50 (RPMI-8226 [32]; [47]): 100 µM
- GI50 (HL-60 [33]): 4.1 µM
- MIC (Vero [34]): > 16 µg/mL
- MIC (Staphylococcus aureus): 1000 µg/mL (≈ 2070 µM)
- GI50 (RPMI-8226 [35]): 6.7 µM
- TGI (HuT78 [46]): 100 µM
